≈ marks a conversion by molar mass, not a printed value.
Tests used:
Format in all cases: functional
[1] = test system: Enterococcus faecium; test: Antimicrobial activity against vancomycin-susceptible Enterococcus faecium clinical isolates assessed as resistant isolates by broth microdilution method
[2] = test system: Enterococcus faecalis; test: Antimicrobial activity against Enterococcus faecalis clinical isolates assessed as percent susceptible isolates by broth microdilution method
[3] = test system: Enterococcus faecium; test: Antimicrobial activity against vancomycin-nonsusceptible Enterococcus faecium clinical isolates by broth microdilution method
[4] = test system: Enterococcus faecalis; test: Antimicrobial activity against Enterococcus faecalis expressing VanA gene clinical isolates assessed as percent susceptible isolates by broth microdilution method
[5] = test system: Staphylococcus epidermidis; test: Antimicrobial activity against oxacillin-susceptible Staphylococcus epidermidis clinical isolates by broth microdilution method
[6] = test system: Enterococcus faecalis; test: Antimicrobial activity against vancomycin-susceptible Enterococcus faecalis clinical isolates assessed as resistant isolates by broth microdilution method
[7] = test system: Enterococcus faecium; test: Antimicrobial activity against vancomycin-susceptible Enterococcus faecium clinical isolates assessed as percent susceptible isolates by broth microdilution method
[8] = test system: Enterococcus faecium; test: Antimicrobial activity against Enterococcus faecium expressing VanB gene clinical isolates assessed as resistant isolates by broth microdilution method
[9] = test system: Enterococcus faecium; test: Antimicrobial activity against Enterococcus faecium clinical isolates by broth microdilution method
[10] = test system: Staphylococcus epidermidis; test: Antimicrobial activity against Staphylococcus epidermidis clinical isolates by broth microdilution method
[11] = test system: Enterococcus faecalis; test: Antimicrobial activity against vancomycin-susceptible Enterococcus faecalis clinical isolates by broth microdilution method
[12] = test system: Enterococcus faecalis; test: Antimicrobial activity against Enterococcus faecalis expressing VanB gene clinical isolates assessed as percent susceptible isolates by broth microdilution method
[13] = test system: Staphylococcus haemolyticus; test: Antimicrobial activity against oxacillin-susceptible Staphylococcus haemolyticus clinical isolates assessed as percent susceptible isolates by broth microdilution method
[14] = test system: Staphylococcus aureus; test: Antimicrobial activity against oxacillin-susceptible Staphylococcus aureus clinical isolates assessed as percent susceptible isolates by broth microdilution method
[15] = test system: Staphylococcus haemolyticus; test: Antimicrobial activity against oxacillin-susceptible Staphylococcus haemolyticus clinical isolates by broth microdilution method
[16] = test system: Staphylococcus haemolyticus; test: Antimicrobial activity against Staphylococcus haemolyticus clinical isolates by broth microdilution method
[17] = test system: Enterococcus faecalis; test: Antimicrobial activity against Enterococcus faecalis expressing VanB gene clinical isolates assessed as resistant isolates by broth microdilution method
[18] = test system: Staphylococcus aureus; test: Antimicrobial activity against oxacillin-resistant Staphylococcus aureus clinical isolates by broth microdilution method
[19] = test system: Enterococcus faecalis; test: Antimicrobial activity against vancomycin-nonsusceptible Enterococcus faecalis clinical isolates assessed as resistant isolates by broth microdilution method
[20] = test system: Staphylococcus aureus; test: Antimicrobial activity against Staphylococcus aureus clinical isolates by broth microdilution method
[21] = test system: Enterococcus faecium; test: Antimicrobial activity against vancomycin-nonsusceptible Enterococcus faecium clinical isolates assessed as percent susceptible isolates by broth microdilution method
[22] = test system: Enterococcus faecium; test: Antimicrobial activity against Enterococcus faecium expressing VanA gene clinical isolates assessed as resistant isolates by broth microdilution method
[23] = test system: Enterococcus faecalis; test: Antimicrobial activity against vancomycin-susceptible Enterococcus faecalis clinical isolates assessed as percent susceptible isolates by broth microdilution method
[24] = test system: Enterococcus faecium; test: Antimicrobial activity against Enterococcus faecium expressing VanA gene clinical isolates assessed as percent susceptible isolates by broth microdilution method
[25] = test system: Enterococcus faecalis; test: Antimicrobial activity against vancomycin-nonsusceptible Enterococcus faecalis clinical isolates assessed as percent susceptible isolates by broth microdilution method
[26] = test system: Staphylococcus epidermidis; test: Antimicrobial activity against oxacillin-susceptible Staphylococcus epidermidis clinical isolates assessed as percent susceptible isolates by broth microdilution method
[27] = test system: Staphylococcus epidermidis; test: Antimicrobial activity against oxacillin-resistant Staphylococcus epidermidis clinical isolates by broth microdilution method
[28] = test system: Enterococcus faecalis; test: Antimicrobial activity against Enterococcus faecalis clinical isolates assessed as resistant isolates by broth microdilution method
[29] = test system: Staphylococcus epidermidis; test: Antimicrobial activity against Staphylococcus epidermidis clinical isolates assessed as percent susceptible isolates by broth microdilution method
[30] = test system: Enterococcus faecium; test: Antimicrobial activity against Enterococcus faecium expressing VanB gene clinical isolates by broth microdilution method
[31] = test system: Staphylococcus haemolyticus; test: Antimicrobial activity against Staphylococcus haemolyticus clinical isolates assessed as percent susceptible isolates by broth microdilution method
[32] = test system: Staphylococcus aureus; test: Antimicrobial activity against oxacillin-susceptible Staphylococcus aureus clinical isolates by broth microdilution method
[33] = test system: Staphylococcus haemolyticus; test: Antimicrobial activity against oxacillin-resistant Staphylococcus haemolyticus clinical isolates by broth microdilution method
[34] = test system: Enterococcus faecium; test: Antimicrobial activity against Enterococcus faecium expressing VanA gene clinical isolates by broth microdilution method
[35] = test system: Enterococcus faecium; test: Antimicrobial activity against Enterococcus faecium clinical isolates assessed as resistant isolates by broth microdilution method
[36] = test system: Enterococcus faecalis; test: Antimicrobial activity against Enterococcus faecalis expressing VanA gene clinical isolates by broth microdilution method
[37] = test system: Enterococcus faecalis; test: Antimicrobial activity against Enterococcus faecalis expressing VanB gene clinical isolates by broth microdilution method
[38] = test system: Enterococcus faecium; test: Antimicrobial activity against Enterococcus faecium clinical isolates assessed as percent susceptible isolates by broth microdilution method
[39] = test system: Enterococcus faecalis; test: Antimicrobial activity against Enterococcus faecalis expressing VanA gene clinical isolates assessed as resistant isolates by broth microdilution method
[40] = test system: Enterococcus faecalis; test: Antimicrobial activity against vancomycin-nonsusceptible Enterococcus faecalis clinical isolates by broth microdilution method
[41] = test system: Enterococcus faecium; test: Antimicrobial activity against vancomycin-susceptible Enterococcus faecium clinical isolates by broth microdilution method
[42] = test system: Enterococcus faecium; test: Antimicrobial activity against vancomycin-nonsusceptible Enterococcus faecium clinical isolates assessed as resistant isolates by broth microdilution method
[43] = test system: Enterococcus faecalis; test: Antimicrobial activity against Enterococcus faecalis clinical isolates by broth microdilution method
[44] = test system: Enterococcus faecium; test: Antimicrobial activity against Enterococcus faecium expressing VanB gene clinical isolates assessed as percent susceptible isolates by broth microdilution method
[45] = test system: Staphylococcus haemolyticus; test: Antimicrobial activity against oxacillin-resistant Staphylococcus haemolyticus clinical isolates assessed as percent susceptible isolates by broth microdilution method
[46] = test system: Staphylococcus aureus; test: Antimicrobial activity against Staphylococcus aureus clinical isolates assessed as percent susceptible isolates by broth microdilution method

## CC(=O)NC[C@H]1CN(c2ccc(N3CCOCC3)c(F)c2)C(=O)O1 [LINEZOLID]
[1]
  Activity: 0%
[2]
  Activity: 99.8%
[3]
  MIC90: 2 µg/mL (≈ 5.93 µM)
[4]
  Activity: 98.5%
[5]
  MIC90: 1 µg/mL (≈ 2.96 µM)
[6]
  Activity: 0.1%
[7]
  Activity: 99.4%
[8]
  Activity: 3.4%
[9]
  MIC90: 2 µg/mL (≈ 5.93 µM)
[10]
  MIC90: 1 µg/mL (≈ 2.96 µM)
[11]
  MIC90: 2 µg/mL (≈ 5.93 µM)
[12]
  Activity: 100%
[13]
  Activity: 100%
[14]
  Activity: 100%
[15]
  MIC90: 1 µg/mL (≈ 2.96 µM)
[16]
  MIC90: 1 µg/mL (≈ 2.96 µM)
[17]
  Activity: 0%
[18]
  MIC90: 2 µg/mL (≈ 5.93 µM)
[19]
  Activity: 1.1%
[20]
  MIC90: 2 µg/mL (≈ 5.93 µM)
[21]
  Activity: 99.1%
[22]
  Activity: 0.5%
[23]
  Activity: 99.9%
[24]
  Activity: 99.5%
[25]
  Activity: 98.9%
[26]
  Activity: 99.7%
[27]
  MIC90: 1 µg/mL (≈ 2.96 µM)
[28]
  Activity: 0.2%
[29]
  Activity: 99.4%
[30]
  MIC90: 2 µg/mL (≈ 5.93 µM)
[31]
  Activity: 99.3%
[32]
  MIC90: 2 µg/mL (≈ 5.93 µM)
[33]
  MIC90: 1 µg/mL (≈ 2.96 µM)
[34]
  MIC90: 2 µg/mL (≈ 5.93 µM)
[35]
  Activity: 0.4%
[36]
  MIC90: 2 µg/mL (≈ 5.93 µM)
[37]
  MIC90: 2 µg/mL (≈ 5.93 µM)
[38]
  Activity: 99.3%
[39]
  Activity: 1.5%
[40]
  MIC90: 2 µg/mL (≈ 5.93 µM)
[41]
  MIC90: 2 µg/mL (≈ 5.93 µM)
[42]
  Activity: 0.6%
[43]
  MIC90: 2 µg/mL (≈ 5.93 µM)
[44]
  Activity: 93.1%
[45]
  Activity: 99%
[46]
  Activity: 100%

## CN[C@@H]1[C@H](O[C@H]2[C@H](O[C@H]3[C@H](O)[C@@H](O)[C@H](N=C(N)N)[C@@H](O)[C@@H]3N=C(N)N)O[C@@H](C)[C@]2(O)C=O)O[C@@H](CO)[C@H](O)[C@H]1O [STREPTOMYCIN]
[1]
  Activity: 44%
[2]
  Activity: 70.1%
[3]
  MIC: ≥ 1000 µg/mL
  MIC90: > 1000 µg/mL
[4]
  Activity: 49.2%
[6]
  Activity: 28.7%
[7]
  Activity: 56%
[8]
  Activity: 65.5%
[9]
  MIC: ≥ 1000 µg/mL
  MIC90: > 1000 µg/mL
[11]
  MIC: ≥ 1000 µg/mL
  MIC90: > 1000 µg/mL
[12]
  Activity: 41.2%
[17]
  Activity: 58.8%
[19]
  Activity: 51.7%
[21]
  Activity: 36.5%
[22]
  Activity: 63.9%
[23]
  Activity: 71.3%
[24]
  Activity: 36.1%
[25]
  Activity: 48.3%
[28]
  Activity: 29.9%
[30]
  MIC: ≥ 1000 µg/mL
  MIC90: > 1000 µg/mL
[34]
  MIC: ≥ 1000 µg/mL
  MIC90: > 1000 µg/mL
[35]
  Activity: 55.2%
[36]
  MIC: ≥ 1000 µg/mL
  MIC90: > 1000 µg/mL
[37]
  MIC: ≥ 1000 µg/mL
  MIC90: > 1000 µg/mL
[38]
  Activity: 44.8%
[39]
  Activity: 50.8%
[40]
  MIC: ≥ 1000 µg/mL
  MIC90: > 1000 µg/mL
[41]
  MIC: ≥ 1000 µg/mL
  MIC90: > 1000 µg/mL
[42]
  Activity: 63.5%
[43]
  MIC: ≥ 1000 µg/mL
  MIC90: > 1000 µg/mL
[44]
  Activity: 34.5%

## GENTAMICIN
[1]
  Activity: 25.1%
[2]
  Activity: 65.4%
[3]
  MIC: > 500 µg/mL
  MIC90: > 500 µg/mL
[4]
  Activity: 16.9%
[6]
  Activity: 32.2%
[7]
  Activity: 74.9%
[8]
  Activity: 24.1%
[9]
  MIC: > 500 µg/mL
  MIC90: > 500 µg/mL
[11]
  MIC: > 500 µg/mL
  MIC90: > 500 µg/mL
[12]
  Activity: 29.4%
[17]
  Activity: 70.6%
[19]
  Activity: 80.5%
[21]
  Activity: 63.3%
[22]
  Activity: 37.1%
[23]
  Activity: 67.8%
[24]
  Activity: 62.9%
[25]
  Activity: 19.5%
[28]
  Activity: 34.6%
[30]
  MIC: > 500 µg/mL
  MIC90: > 500 µg/mL
[34]
  MIC: > 500 µg/mL
  MIC90: > 500 µg/mL
[35]
  Activity: 31.7%
[36]
  MIC: > 500 µg/mL
  MIC90: > 500 µg/mL
[37]
  MIC: > 500 µg/mL
  MIC90: > 500 µg/mL
[38]
  Activity: 68.3%
[39]
  Activity: 83.1%
[40]
  MIC: > 500 µg/mL
  MIC90: > 500 µg/mL
[41]
  MIC: > 500 µg/mL
  MIC90: > 500 µg/mL
[42]
  Activity: 36.7%
[43]
  MIC: > 500 µg/mL
  MIC90: > 500 µg/mL
[44]
  Activity: 75.9%
